From US20080070942A1, “PRAZOLE DERIVATIVES AND SALTS THEREOF AND USE OF SAME” (JIANGSU HANSEN PHARMACEUTICAL CO., LTD., priority 2004, published 2008) come the findings set out here.

For data set [1], the system named is gastric ulcer model induced by anhydrous ethanol in rats. In words: Gastric ulcer model induced by anhydrous ethanol in rats. It counts as in vivo, Wistar rat. Further details: Ulcer area: unit not given beside the values. The note with it: for ulcer areas, effect in words: anhydrous ethanol ulcer. As to the method: Wistar rat, weight: 180-220 g, male, obtained from Institute of Zoology, Chinese Academy of Medical Sciences. Compound (I) and Compound (II) of the present invention and sodium rabeprazole, provided by Jiangsu Hansen Pharmaceutical Co., Ltd. The required concentration is prepared with distilled water and the volume for administration of drug is 10 ml/kg. Methods: 40-hour fasting rats were randomly divided into groups and treated with different doses of sodium rabeprazole, compound (I), compound (II) and distilled water (as control) by gastric perfusion, respectively. After 0.5 hour, each rat was administered with 1 ml anhydrous ethanol and then rats were sacrificed 1 hour later. The stomachs were taken out and injected with 10 ml fix solution. After fixed in 3% formaldehyde solution, the stomachs were dissected and the ulcer areas were measured. The significance test was made by t-programme.

Data set [2] concerns gastric acid secretion model induced by pylorus ligation in rats. Description: Effect on gastric acid secretion model induced by pylorus ligation in rats. It counts as in vivo, Wistar rat. The note with it: pylorus-ligated rats, 5 hours after operation. As to the method: Wistar rat, weight 180-220 g, male, obtained from Institute of Zoology, Chinese Academy of Medical Sciences. Sodium rabeprazole, compound (II) of the present invention and tenatoprazole, provided by Jiangsu Hansen Pharmaceutical Co., Ltd. Added 1 drop of Tween-80 as a solubilizing assistant and prepared the required concentrations with distilled water. Methods: 48-hour fasting rats were divided into groups randomly. Pylon ligation was carried out under ether anaesthesia. […] The rats were sacrificed at 5 hours after the operation and the gastric juice was collected and measured. The content of HCl in gastric juice is determined by titration with 0.1 mol/L NaOH and the significance test was made by t-programme.

Data set [3] concerns gastric ulcer model induced by acetic acid in rats. In words: Chronic gastric ulcer model induced by acetic acid in rats. In kind it is in vivo. The note with it: x ± s. As to the method: Methods: Abdominal cavities of fasting rats were cut under the anaesthesia of sodium pentobarbital and gently stretched the stomachs. The glandular stomachs near pylons were injected with 20 μl 30% acetic acid and then the abdominal cavities were re-closed. At the day the operation finished, rats were randomly divided into groups and started to be administered with drugs of 10 ml/kg once a day for 10 continuous days. Rats were then sacrificed in the following day when the last drug was administered, and stomachs were taken out and were injected with 10 ml water, and then were put into 3% formaldehyde solution to be fixed for 30 minutes. The stomachs were dissected along their greater curvatures and stretched on a glass plate and the ulcer areas were measured. The significance test was made by t-programme.

A further data set can be described thus: in vivo. The conditions noted are these: dog, 5 mg/kg. As to the method:
Methods: Six healthy male beagle dogs with weight 5.5˜6.7 kg were randomly divided into three groups for triple cross over administration. They were perfused with rabeprazole, tenatoprazole and compound (II) respectively after one-night fasting. The dose of each drug was 5 mg/kg. Each dog was fed with 50 ml water by gastric perfusion after administration of the drug. 2 ml blood was taken respectively from forelimb saphenous vein at 0.25, 0.5, 1, 2, 3, 4, 5, 6, 7, 8, 10, 12 hours after tenatoprazole was administered, at 5, 10, 20, 30, 40, 50, 60, 75, 90, 120, 180 minutes after rabeprazole was administered, and at 1, 2, 3, 3.5, 4, 4.5, 5, 6, 7, 8, 10, 12 hours after compound (II) was administered, and then put each blood sample in each test tube treated with EDTA, then centrifuging for 10 min at 3500 rpm. The upper plasma was removed from the test tube into another test tube containing 50 μl 2% NaOH solution and reserved at −20[…]. The plasma drug concentration was determined by HPLC. Cross-over administration to dogs was performed one week later.
The calculation method for pharmacokinetic parameters: compartment model is estimated by software DAS1.0. […] T½=0.693/λz, Tmax and Cmax are are measured values.

For data set [4], the system named is ulcer model induced by indomethacin in rats. In words: Gastric ulcer model induced by indomethacin in rats. In kind it is in vivo, Wistar rats. As for the experimental part: Wistar rats, weight: 180-220 g, same number of male and female, provided by Institute of Zoology, Chinese Academy of Medical Sciences. (Certification of Qualification of Animal: scxk Beijing 2000-0006) 0.5% methylcellulose sodium: 2 g/L NaHCO3 is contained and pH value is adjusted to 9.0 with NaOH. Preparation: The drug was porphyrized and diluted with 0.5% methylcellulose sodium to the required concentration. It must be used up in 30 minutes. Methods: Sixty 48-hour fasting rats were divided into six groups and gastric-perfused with different doses of compound (II), sodium rabeprazole and 0.5% methylcellulose sodium (as control), respectively. After 0.5 hour, 20 mg/kg indomethacin was injected into the abdominal cavities. Six hours later, rats were sacrificed by cervical dislocation and the stomachs were taken out. After injected with 10 ml water, stomachs were then fixed in 3% formaldehyde solution. The hemorrhagic spots were counted. A significance test was carried out by t-programme.

In data set [5] the test system is ulcer rat models induced by pylori ligation. Description: Ulcer model induced by pylori ligation in rats. It counts as in vivo. As for the experimental part: Methods: Sixty 40 hour-fasting rats were divided into 6 groups according to Table 2. A pylori ligation operation was carried out under the anaesthesia of ether. […] The stomachs were dissected and the number of gastric ulcers was counted. The result was tested by a significance test of t-programme.

[6] abbreviates: 3 mg/kg by gastric perfusion 0.5 hour before 1 ml anhydrous ethanol.
[7] abbreviates: 10 mg/kg by gastric perfusion 0.5 hour before 1 ml anhydrous ethanol.
The mark [8] stands for this setting: 6.7 μmol/kg through the duodenum.
[9] abbreviates: 20.0 μmol/kg through the duodenum.
The mark [10] stands for this setting: 20 μmol/kg once a day for 10 days.
Where [11] appears, read: 60 μmol/kg once a day for 10 days.

Marks after values point to notes of the source that are not given here.

With `COCCCOc1ccnc(C[S+]([O-])c2nc3cc(OC(F)F)ccc3[n-]2)c1C.[Na+]` (stereo not drawn) [Compound (I)], the figures for the Ulcer area in data set [1] (setting [6]) and in data set [1] (setting [7]) were 12.1 ± 18.1 and 5.5 ± 9.9, respectively. Besides, the “ulcer areas, effect in words” value in data set [1] is “more significant effect”.

Usually AUC stands for the area under the concentration-time curve, a measure of exposure. In general, Cmax refers to the peak of the concentration-time curve. For orientation: MRT means the average time that molecules of a dose stay in the body. As usually defined, the half-life is how long it takes for the measured level to halve. Consider `COc1ccc2[nH]c([S+]([O-])Cc3ncc(C)c(OC)c3C)nc2n1` (stereo not drawn) [Tenatoprazole, tenatoprazole], for which the “Amount of gastric acid” value is on record as 0.16 ± 0.06 mmol/stomach in data set [2] (setting [8]) and 0.14 ± 0.03 mmol/stomach in data set [2] (setting [9]). Besides, the “Amount of gastric juice” value in data set [2] (setting [8]) was 2.8 ± 0.7 ml/stomach; in data set [2] (setting [9]), 2.8 ± 0.5 ml/stomach. Moreover, the Ulcer area in data set [3] (setting [10]) is reported as 7.6 ± 3.6 mm^2; in data set [3] (setting [11]), 5.8 ± 3.6* mm^2. Further, the AUC in “in vivo” (male, beagle, po, AUC) amounted to 18000 ng·h/mL; in “in vivo” (male, beagle, po, AUC^12), 16900 ng·h/mL. The compound further yielded a Cmax in “in vivo” (male, beagle, po, Cmax) of 4280 ng/mL. The compound further showed a mean residence time MRT in the data set “in vivo” (male, beagle, po, MRT) of 5.4 h. The compound further had a half-life in the data set “in vivo” (male, beagle, po, T1/2) of 3.74 h.

Regarding `COCCCOc1ccnc(C[S+]([O-])c2nc3ccccc3[nH]2)c1C` (stereo not drawn) [Sodium Rabeprazole], the Ulcer area is recorded as 26.4 ± 20.6 in data set [1] (setting [6]), 11.1 ± 2.7 in data set [1] (setting [7]), 6.2 ± 3.5 mm^2 in data set [3] (setting [10]) and 4.8 ± 3.1** mm^2 in data set [3] (setting [11]). Further, in data set [1], the “ulcer areas, effect in words” value is recorded as “reduced”. For the same compound, the No. of ulcers stood at 3.1 ± 4.6 in data set [4] (40 μmol/kg gastric perfusion, indomethacin 20 mg/kg, x ± s) and 8.9 ± 14.7 in data set [5] (40 μmol/kg through duodenum, pylori ligation, 18 hours, x ± s). Moreover, the Inhibition rate is 72.3% in data set [4] (40 μmol/kg, indomethacin ulcer) and 63.2% in data set [5] (40 μmol/kg, pylori ligation ulcer). Also, in data set [4] (gastric perfusion), the “hemorrhagic spots on gastric mucosal induced by indomethacin, effect in words” value is “lower than that of compound (II)”. In data set [5] (pylori ligation ulcer), the “ulcers in the rats, effect in words” value is reported as “essentially same function”. The entries for the “Amount of gastric acid” value in data set [2] (setting [8]) and in data set [2] (setting [9]) were 0.25 ± 0.10 mmol/stomach and 0.17 ± 0.08 mmol/stomach, respectively. The results for the “Amount of gastric juice” value in data set [2] (setting [8]) and in data set [2] (setting [9]) were 4.0 ± 0.7 ml/stomach and 3.7 ± 0.8 ml/stomach, respectively.

For the compound `COCCCOc1ccnc(C[S+]([O-])c2nc3ccccc3[nH]2)c1C` (stereo not drawn) [rabeprazole], the half life result in “in vivo” is given as “less than half hour”.
